Source: patent US7342092B2, “Cancer antigen peptide formulations” (International Institute of Cancer Immunology, Inc., priority 2002, dated 2008)
Where no end group is shown, it is not given here.

Columns and labels:
[1] = test system: CTLs reactive to the wild type WT1 peptide-presenting HLA-A*2402 molecule; assay: HLA tetramer method, CTLs reactive to wild type WT1 peptide-presenting HLA-A*2402, Example 3; assay type: in vivo, human; settings: two days after the administration; 1.1% three days before the administration
Protocol: Subsequently, the number of cytotoxic T cells (CTLs) reactive to the wild type WT1 peptide-presenting HLA-A*2402 molecule in the same patient was determined by an HLA tetramer method. The HLA-A*2402 tetramer was prepared using the wild type WT1 peptide according to the method described in Int. J. Cancer 100, 565-570 (2002). On a flow cytometer, FACS, the cells were stained with the two colors of PE-labeled HLA-A*2402 tetramer and FITC-labeled CD8 antibody, and the double-positive cells were assigned to CTLs recognizing the wild type WT1 peptide, i.e., CTLs reactive to WT1-positive cancer cells. CTL frequency three days before the administration of the peptide was 1.1%, whereas the frequency was increased to 8.8% two days after the administration.

[2] = test system: cancer patient two suffered from acute myeloblastic leukemia (AML-M1) transformed from Myelodysplastic Syndromes (MDS); assay: Leukocyte number and bone marrow leukemic blasts in the leukemia patient, Example 3; assay type: in vivo, human
Protocol: The present example illustrates the case of the cancer patient two suffered from acute myeloblastic leukemia (AML-M1) transformed from Myelodysplastic Syndromes (MDS), who was administered with the WT1 peptide vaccine. The WT1 peptide used in this example was altered type WT1 peptide: Cys Tyr Thr Trp Asn Gln Met Asn Leu (SEQ ID NO: 3) synthesized by MPS Inc. (U.S.) with GMP grade. In a similar manner to Example 1, the peptide was mixed with MONTANIDE ISA (registered trademark) 51 to provide a water-in-oil emulsion, and the emulsion was injected intradermally at the upper arm of the patient. Leukemic blasts occupied 50% of the bone marrow two days before the administration, while the total number of leukocytes was 1500/μl on the day before the administration. Two days after the administration, the total number of leukocytes was decreased to 700/μl, and the leukemic blasts of the bone marrow reduced to 27%. When a hemopoietic factor, G-CSF, was administered to the patient in the light of the decreased total number of leukocytes, the total number recovered to 2150/μl, and the leukemic blasts of the bone marrow was 11% seven days after the administration.

[3] = test system: lung cancer patient two with metastasis at stage IV; assay: Change in blood tumor marker levels in the lung cancer patient two, Example 2; assay type: in vivo, human
Protocol: The present example illustrates the case of the lung cancer patient two with metastasis at stage IV, who was administered with the WT1 peptide vaccine. In a similar manner to Example 1, a solution of wild type WT1 peptide (SEQ ID NO: 2) was mixed with Montanide ISA (registered trademark) 51 to provide a water-in-oil emulsion each just before the administration wherein the emulsion was injected intradermally at the upper arm of the patient totally six times, i.d. on day 0, 14, 28, 42, 56, and 71 wherein day 0 represents the day when the first administration was conducted.
The levels of tumor markers, CEA and SLX, were determined in a similar manner to Example 1, and the level of CYFRA (cytokeratin 19 fragments) was determined using Elecsys CYFRA produced by Roche.

[4] = test system: peripheral blood mononuclear cells (PBMC); assay: ELISPOT of IFN-γ producing T cells in PBMC, Example 1; assay type: cell-based, human; settings: PBMC receiving the peptide in comparison with PBMC not receiving the peptide

In the case of CYTWNQMNL [altered type WT1 peptide], the “CTL frequency (HLA-A*2402 tetramer and CD8 double-positive cells)” value [1] is reported as 8.8%, the “leukemic blasts of the bone marrow” value ([2]; seven days after the administration, G-CSF also given) is reported as 11% and the “leukemic blasts of the bone marrow” value ([2]; two days after the administration, 50% two days before the administration) is reported as 27%. For the same sequence, the conditions of leukemia ([2]; water-in-oil emulsion, overall conclusion of Example 3) was “improved the conditions of leukemia with decreased ratio of the leukemic blasts in the bone marrow”.
With CMTWNQMNL [wild type WT1 peptide] the “level of SLX in blood” value ([3]; on and after the 2nd administration, before administration 50 U/ml, upper limit of normal 38 U/ml, FIG. 2) was “decreased to reach the normal level”, the “level of CEA in blood” value ([3]; on and after the 2nd administration, before administration higher than upper limit of normal 5 ng/ml, FIG. 2) was “decreased” and the “level of CYFRA in blood” value ([3]; on and after the 3rd administration, below the upper limit of normal level, FIG. 2) was under 2 ng/mL. For the same sequence, the “development of the tumor” value ([3]; water-in-oil emulsion, overall conclusion of Example 2) was “suppressed the development of the tumor” and the “T cells producing IFN-γ in response to specifically the peptide (ELISPOT)” value [4] was “found to be more”.
